Reference: ChEMBL document CHEMBL5131471, “Design, synthesis and mechanism studies of novel dual PARP1/BRD4 inhibitors against pancreatic cancer” (Eur J Med Chem, 2022)
Active and inactive are the calls of the source.

Columns and labels:
SW1990 [1] = assay: Downregulation of Ki67 expression in human SW1990 cells at 15 mg/kg, ip measured after 28 days by immuno histochemical staining based fluorescence microscopic analysis; format: functional, organism-based; details: time 28.0 day
[2] = Toxicity in nude mouse xenografted with human SW1990 cells assessed as spleen damage at 15 mg/kg, ip administered for 28 days in presence of 45 mg/kg Olaparib by H and E staining based fluorescence microscopic analysis; format: organism-based; details: in vivo, 672 h, time 28 day
SW1990 [3] = assay: Induction of DNA damage in human SW1990 cells assessed as increase in tail DNA at 1 uM incubated for 4 days in presence of 3 uM Olaparib by comet assay; format: functional, cell-based; details: time 4.0 day
SW1990 [4] = assay: Effect on BRCA1 gene expression in human SW1990 cells at 4 uM by Q-PCR analysis; format: functional, cell-based
[5] = Toxicity in nude mouse xenografted with human SW1990 cells assessed as heart damage at 15 mg/kg, ip administered for 28 days in presence of 45 mg/kg Olaparib by H and E staining based fluorescence microscopic analysis; format: organism-based; details: in vivo, 672 h, time 28 day
[6] = Toxicity in nude mouse xenografted with human SW1990 cells assessed as kidney damage at 15 mg/kg, ip administered for 28 days in presence of 45 mg/kg Olaparib by H and E staining based fluorescence microscopic analysis; format: organism-based; details: in vivo, 672 h, time 28 day
SW1990 [7] = assay: Effect on CCND1 gene expression in human SW1990 cells at 4 uM by Q-PCR analysis; format: functional, cell-based
Mus musculus [8] = assay: Inhibition of homologous recombinant repair in nude mouse xenografted with human SW1990 cells assessed as reversal of olaparib-induced HEXIM1 expression at 30 mg/kg, ip measured after 4 days by Western blot analysis; format: functional, organism-based; details: time 4.0 day
SW1990 [9] = assay: Effect on MDC1 gene expression in human SW1990 cells at 1 to 2 uM by Q-PCR analysis; format: functional, cell-based; details: dose 1-2 µM
Mus musculus [10] = assay: Inhibition of CDK6 expression in nude mouse xenografted with human SW1990 cells at 30 mg/kg, ip measured after 4 days by Q-PCR analysis; format: functional, organism-based; details: time 4.0 day
SW1990 [11] = assay: Inhibition of homologous recombinant repair in human SW1990 cells assessed as reversal of Olaparib-induced HEXIM1 expression at 1 to 2 uM after 4 days by Western blot analysis; format: functional, cell-based; details: dose 1-2 µM, time 4.0 day
SW1990 [12] = assay: Downregulation of PARP1 expression in human SW1990 cells at 2 uM measured after 4 days by Western blot analysis; format: functional, cell-based; details: time 4.0 day
SW1990 [13] = assay: Inhibition of homologous recombinant repair in human SW1990 cells assessed as reversal of Olaparib-induced TOPBP1 expression at 1 to 2 uM after 4 days by Western blot analysis; format: functional, cell-based; details: dose 1-2 µM, time 4.0 day
SW1990 [14] = assay: Inhibition of CDK1 protein expression in human SW1990 cells at 1 to 2 uM measured after 4 days by Western blot analysis; format: functional, cell-based; details: dose 1-2 µM, time 4.0 day
SW1990 [15] = assay: Effect on BRCA2 gene expression in human SW1990 cells at 1 to 2 uM by Q-PCR analysis; format: functional, cell-based; details: dose 1-2 µM
Mus musculus [16] = assay: Inhibition of PARP1 expression in nude mouse xenografted with human […] cells at 30 mg/kg, ip administered for 28 days by DAPI staining based laser confocal microscopic analysis; format: functional, organism-based; details: time 28.0 day
Mus musculus [17] = assay: Inhibition of CDK6 expression in nude mouse xenografted with human SW1990 cells at 30 mg/kg, ip measured after 4 days by Western blot analysis; format: functional, organism-based; details: time 4.0 day
SW1990 [18] = assay: Induction of cell cycle arrest in human SW1990 cells assessed as accumulation of cells at G2/M phase at 2 uM incubated for 4 days by propidium iodide staining based flow cytometry (reference value: 5.89%); format: functional; details: time 4 day
SW1990 [19] = assay: Effect on CDK1 gene expression in human SW1990 cells at 1 to 2 uM by Q-PCR analysis; format: functional, cell-based; details: dose 1-2 µM
SW1990 [20] = assay: Induction of apoptosis in human SW1990 cells assessed as early apoptotic cells at 2 uM measured after 4 days by Annexin V-FITC and propidium iodide staining based flow cytometry (reference value: 1.62%); format: functional; details: time 4 day
SW1990 [21] = assay: Effect on FOXM1 gene expression in human SW1990 cells at 1 to 2 uM by Q-PCR analysis; format: functional, cell-based; details: dose 1-2 µM
SW1990 [22] = assay: Inhibition of CCNB1 protein expression in human SW1990 cells at 1 to 2 uM measured after 4 days by Western blot analysis; format: functional, cell-based; details: dose 1-2 µM, time 4.0 day
Mus musculus [23] = assay: Inhibition of BRD4 expression in nude mouse xenografted with human SW1900 cells at 30 mg/kg, ip administered for 28 days by Q-PCR analysis; format: functional, organism-based; details: time 28.0 day
Mus musculus [24] = assay: Induction of DNA damage in nude mouse xenografted with human SW1990 cells assessed as increase in gammaH2AX expression at 30 mg/kg, ip incubated for 4 days by DAPI staining based laser confocal microscopic analysis; format: functional, organism-based; details: time 4.0 day
[25] = Toxicity in nude mouse xenografted with human SW1990 cells assessed as spleen damage at 30 mg/kg, ip administered for 28 days by H and E staining based fluorescence microscopic analysis; format: organism-based; details: in vivo, 672 h, time 28 day
SW1990 [26] = assay: Upregulation of BRCA1 expression in human SW1990 cells at 6 uM measured after 4 days by Western blot analysis; format: functional, cell-based; details: time 4.0 day
SW1990 [27] = assay: Effect on TOPBP1 gene expression in human SW1990 cells at 6 uM by Q-PCR analysis; format: functional, cell-based
SW1990 [28] = assay: Upregulation of CDK6 expression in human SW1990 cells at 6 uM measured after 4 days by Western blot analysis; format: functional, cell-based; details: time 4.0 day
Mus musculus [29] = assay: Upregulation of CCND1 expression in nude mouse xenografted with human SW1990 cells at 45 mg/kg, ip measured after 4 days by Western blot analysis; format: functional, organism-based; details: time 4.0 day
[30] = Toxicity in nude mouse xenografted with human SW1990 cells assessed as heart damage at 45 mg/kg, ip administered for 28 days by H and E staining based fluorescence microscopic analysis; format: organism-based; details: in vivo, 672 h, time 28 day
SW1990 [31] = assay: Upregulation of FOXM1 expression in human SW1990 cells at 6 uM measured after 4 days by Western blot analysis; format: functional, cell-based; details: time 4.0 day
SW1990 [32] = assay: Effect on ALDH1A1 gene expression in human SW1990 cells at 6 uM by Q-PCR analysis; format: functional, cell-based
SW1990 [33] = assay: Effect on CDC25B gene expression in human SW1990 cells at 6 uM by Q-PCR analysis; format: functional, cell-based
Mus musculus [34] = assay: Upregulation of […] expression in nude mouse xenografted with human SW1990 cells at 45 mg/kg, ip measured after 28 days by DAPI staining based laser confocal microscopic analysis; format: functional, organism-based; details: time 28.0 day
Mus musculus [35] = assay: Upregulation of CDK1 expression in nude mouse xenografted with human SW1990 cells at 45 mg/kg, ip measured after 4 days by Q-PCR analysis; format: functional, organism-based; details: time 4.0 day
SW1990 [36] = assay: Effect on MDC1 gene expression in human SW1990 cells at 6 uM by Q-PCR analysis; format: functional, cell-based
[37] = Toxicity in nude mouse xenografted with human SW1990 cells assessed as spleen damage at 45 mg/kg, ip administered for 28 days by H and E staining based fluorescence microscopic analysis; format: organism-based; details: in vivo, 672 h, time 28 day
Mus musculus [38] = assay: Upregulation of CDC25B expression in nude mouse xenografted with human SW1990 cells at 45 mg/kg, ip measured after 4 days by Q-PCR analysis; format: functional, organism-based; details: time 4.0 day
SW1990 [39] = assay: Upregulation of CCNB1 expression in human SW1990 cells at 6 uM measured after 4 days by Western blot analysis; format: functional, cell-based; details: time 4.0 day

Cc1sc2c(c1C)C(c1ccc(Cl)cc1)=N[C@@H](CC(=O)OC(C)(C)C)c1nnc(C)n1-2
Non-Toxic: Activity [2] | Activity [5] | Activity [6]
active: Activity (SW1990 [1]) | Activity (SW1990 [3]) | Activity (SW1990 [4]) | Activity (SW1990 [7])

Cc1noc(C)c1-c1ccc2c(c1)C(c1ccccc1)N(Cc1nc3c(C(N)=O)cccc3[nH]1)C(=O)N2C (centres undefined)
1.06%: Activity (SW1990 [20])
12.83%: Activity (SW1990 [18])
active: inhibition (Mus musculus [8]) | Activity (SW1990 [9]) | inhibition (Mus musculus [10]) | inhibition (SW1990 [11]) | Activity (SW1990 [12]) | inhibition (SW1990 [13]) | inhibition (SW1990 [14]) | Activity (SW1990 [15]) | inhibition (Mus musculus [16]) | inhibition (Mus musculus [17]) | Activity (SW1990 [19]) | Activity (SW1990 [21]) | inhibition (SW1990 [22]) | inhibition (Mus musculus [23]) | Activity (Mus musculus [24])
Non-Toxic: Activity [25]

O=C(c1cc(Cc2n[nH]c(=O)c3ccccc23)ccc1F)N1CCN(C(=O)C2CC2)CC1 [OLAPARIB]
active: Activity (SW1990 [26]) | Activity (SW1990 [27]) | Activity (SW1990 [28]) | Activity (Mus musculus [29]) | Activity (SW1990 [31]) | Activity (SW1990 [32]) | Activity (SW1990 [33]) | Activity (Mus musculus [34]) | Activity (Mus musculus [35]) | Activity (SW1990 [36]) | Activity (Mus musculus [38]) | Activity (SW1990 [39])
Non-Toxic: Activity [30] | Activity [37]
